# Data: paper PMC10436550, “Subacute toxicity evaluations of LPM3480392 in rats, a full µ-opioid receptor biased agonist” (Frontiers in Pharmacology, 2023)
# Where two headings read alike, the source gives them in different places.
# Experiment: Toxicokinetics, plasma LPM3480392 after intravenous administration
# Type: in vivo, Sprague Dawley (SD) rats
# Settings: Sprague-Dawley, rat, plasma; for concentration at 2 min: intravenous; for AUC(0-t): iv, read-out: AUC0–12h
# Experimental: Blood samples from animals in LPM3480392 groups were collected at predose and 2 min, 30 min, 1 h and 4 h postdose of the 1st dosing on Days 1 and 28; at 2 min and 4 h postdose of the 2nd dosing on Days 1 and 28; at 2 min, 1 h and 4 h postdose the 3rd dosing on Days 1 and 28. Animals in control group were sampled at predose and 2 min postdose of the 1st dosing on Days 1 and 28. Approximately 0.36 mL of blood was collected from the jugular vein of surviving TK animals at each time point. Whole blood samples were anticoagulated with EDTA-K2 and centrifuged at 2°C–8°C and 1800 × g for 10 min. The harvested plasma was stored below −66°C before the analysis. LC-MS/MS methods (liquid chromatograph/mass spectrometer) were used to detect concentrations of LPM3480392 at each time point. TK parameters (AUC, Cmax, Tmax) were calculated by Phoenix WinNonlin (Pharsight) 8.2. The detection instruments include ultra-performance liquid chromatography (Waters, United States ACQUITY UPLC I -CLASS) and triple quadrupole tandem mass spectrometer (Waters, United States, Xevo TQ-S).
smiles,measurement,setting,value
Fc1ccc([C@]2(CCNCc3cccc(Cl)c3)CCO[C@]3(CCOC3)C2)nc1 [LPM3480392],concentration at 2 min,"female, 1.2 mg/kg/day, 1.2 mg/kg/day iv, 1st dosing day, F, read-out: C2min (The 2nd dosing)",169 ± 26.2 ng/mL
same,concentration at 2 min,"female, 1.2 mg/kg/day, 1.2 mg/kg/day iv, 1st dosing day, F, read-out: C2min (The 3rd dosing)",157 ± 25.5 ng/mL
same,concentration at 2 min,"female, 1.2 mg/kg/day, 1.2 mg/kg/day iv, 28th dosing day, F, read-out: C2min (The 1st dosing)",187 ± 20 ng/mL
same,concentration at 2 min,"female, 1.2 mg/kg/day, 1.2 mg/kg/day iv, 28th dosing day, F, read-out: C2min (The 2nd dosing)",167 ± 14.1 ng/mL
same,concentration at 2 min,"female, 1.2 mg/kg/day, 1.2 mg/kg/day iv, 28th dosing day, F, read-out: C2min (The 3rd dosing)",166 ± 16.1 ng/mL
same,concentration at 2 min,"female, 2.4 mg/kg/day, 2.4 mg/kg/day iv, 1st dosing day, F, read-out: C2min (The 1st dosing)",331 ± 25.1 ng/mL
same,concentration at 2 min,"female, 2.4 mg/kg/day, 2.4 mg/kg/day iv, 1st dosing day, F, read-out: C2min (The 2nd dosing)",292 ± 33.6 ng/mL
same,concentration at 2 min,"female, 2.4 mg/kg/day, 2.4 mg/kg/day iv, 1st dosing day, F, read-out: C2min (The 3rd dosing)",234 ± 52.1 ng/mL
same,concentration at 2 min,"female, 2.4 mg/kg/day, 2.4 mg/kg/day iv, 28th dosing day, F, read-out: C2min (The 1st dosing)",356 ± 81.9 ng/mL
same,concentration at 2 min,"female, 2.4 mg/kg/day, 2.4 mg/kg/day iv, 28th dosing day, F, read-out: C2min (The 2nd dosing)",387 ± 54.9 ng/mL
same,concentration at 2 min,"female, 2.4 mg/kg/day, 2.4 mg/kg/day iv, 28th dosing day, F, read-out: C2min (The 3rd dosing)",323 ± 20.7 ng/mL
same,AUC(0-t),"female, 0.6 mg/kg/day, 0.6 mg/kg/day iv, 1st dosing day, F",319 ± 56 ng·h/mL
same,AUC(0-t),"female, 0.6 mg/kg/day, 0.6 mg/kg/day iv, 28th dosing day, F",331 ± 48.3 ng·h/mL
same,AUC(0-t),"female, 1.2 mg/kg/day, 1.2 mg/kg/day iv, 1st dosing day, F",719 ± 122 ng·h/mL
same,AUC(0-t),"female, 1.2 mg/kg/day, 1.2 mg/kg/day iv, 28th dosing day, F",735 ± 63.4 ng·h/mL
same,AUC(0-t),"female, 2.4 mg/kg/day, 2.4 mg/kg/day iv, 1st dosing day, F",1310 ± 57.9 ng·h/mL
same,AUC(0-t),"female, 2.4 mg/kg/day, 2.4 mg/kg/day iv, 28th dosing day, F",1580 ± 129 ng·h/mL
same,concentration at 2 min,"male, 0.6 mg/kg/day, 0.6 mg/kg/day iv, 1st dosing day, M, read-out: C2min (The 1st dosing)",98.1 ± 21.3 ng/mL
same,concentration at 2 min,"male, 0.6 mg/kg/day, 0.6 mg/kg/day iv, 1st dosing day, M, read-out: C2min (The 2nd dosing)",70.5 ± 14.7 ng/mL
same,concentration at 2 min,"male, 0.6 mg/kg/day, 0.6 mg/kg/day iv, 1st dosing day, M, read-out: C2min (The 3rd dosing)",64.7 ± 10.8 ng/mL
same,concentration at 2 min,"male, 0.6 mg/kg/day, 0.6 mg/kg/day iv, 28th dosing day, M, read-out: C2min (The 1st dosing)",84.3 ± 20.2 ng/mL
same,concentration at 2 min,"male, 0.6 mg/kg/day, 0.6 mg/kg/day iv, 28th dosing day, M, read-out: C2min (The 2nd dosing)",77.9 ± 8.2 ng/mL
same,concentration at 2 min,"male, 0.6 mg/kg/day, 0.6 mg/kg/day iv, 28th dosing day, M, read-out: C2min (The 3rd dosing)",79.4 ± 7.61 ng/mL
same,concentration at 2 min,"male, 1.2 mg/kg/day, 1.2 mg/kg/day iv, 1st dosing day, M, read-out: C2min (The 1st dosing)",170 ± 10.7 ng/mL
same,concentration at 2 min,"male, 1.2 mg/kg/day, 1.2 mg/kg/day iv, 1st dosing day, M, read-out: C2min (The 2nd dosing)",142 ± 28.9 ng/mL
same,concentration at 2 min,"male, 1.2 mg/kg/day, 1.2 mg/kg/day iv, 1st dosing day, M, read-out: C2min (The 3rd dosing)",139 ± 29.2 ng/mL
same,concentration at 2 min,"male, 1.2 mg/kg/day, 1.2 mg/kg/day iv, 28th dosing day, M, read-out: C2min (The 1st dosing)",171 ± 26.2 ng/mL
same,concentration at 2 min,"male, 1.2 mg/kg/day, 1.2 mg/kg/day iv, 28th dosing day, M, read-out: C2min (The 2nd dosing)",113 ± 9.1 ng/mL
same,concentration at 2 min,"male, 1.2 mg/kg/day, 1.2 mg/kg/day iv, 28th dosing day, M, read-out: C2min (The 3rd dosing)",131 ± 18.7 ng/mL
same,concentration at 2 min,"male, 2.4 mg/kg/day, 2.4 mg/kg/day iv, 1st dosing day, M, read-out: C2min (The 1st dosing)",328 ± 33.8 ng/mL
same,concentration at 2 min,"male, 2.4 mg/kg/day, 2.4 mg/kg/day iv, 1st dosing day, M, read-out: C2min (The 2nd dosing)",289 ± 10.5 ng/mL
same,concentration at 2 min,"male, 2.4 mg/kg/day, 2.4 mg/kg/day iv, 1st dosing day, M, read-out: C2min (The 3rd dosing)",225 ± 40.9 ng/mL
same,concentration at 2 min,"male, 2.4 mg/kg/day, 2.4 mg/kg/day iv, 28th dosing day, M, read-out: C2min (The 1st dosing)",346 ± 46 ng/mL
same,concentration at 2 min,"male, 2.4 mg/kg/day, 2.4 mg/kg/day iv, 28th dosing day, M, read-out: C2min (The 2nd dosing)",259 ± 68.3 ng/mL
same,concentration at 2 min,"male, 2.4 mg/kg/day, 2.4 mg/kg/day iv, 28th dosing day, M, read-out: C2min (The 3rd dosing)",317 ± 47.9 ng/mL
same,AUC(0-t),"male, 0.6 mg/kg/day, 0.6 mg/kg/day iv, 1st dosing day, M",310 ± 35.6 ng·h/mL
same,AUC(0-t),"male, 0.6 mg/kg/day, 0.6 mg/kg/day iv, 28th dosing day, M",366 ± 14.7 ng·h/mL
same,AUC(0-t),"male, 1.2 mg/kg/day, 1.2 mg/kg/day iv, 1st dosing day, M",607 ± 83.4 ng·h/mL
same,AUC(0-t),"male, 1.2 mg/kg/day, 1.2 mg/kg/day iv, 28th dosing day, M",625 ± 28.9 ng·h/mL
same,AUC(0-t),"male, 2.4 mg/kg/day, 2.4 mg/kg/day iv, 1st dosing day, M",1190 ± 87.1 ng·h/mL
same,AUC(0-t),"male, 2.4 mg/kg/day, 2.4 mg/kg/day iv, 28th dosing day, M",1400 ± 168 ng·h/mL
